Reference: ChEMBL document CHEMBL1201862, “PubChem BioAssay data set” (2004)
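96-well plates; 48 h exposure; 5 concentrations. Endpoints by linear interpolation between flanking doses. Not reached: highest tested concentration assigned. At the GI50, growth is halved.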 Calls of active or inactive are those of the source. Rule as the data show it: active = GI50 up to about 1.1 µM and inactive = higher.

Legend:
Assay in all cases: NCI anticancer screen, dose series, 48 h
HCT-116 = system: HCT-116
HL-60 = system: HL-60
HOP-62 = system: HOP-62
HOP-92 = system: HOP-92
IGROV-1 = system: IGROV-1
M14 = system: M14
MOLT-4 = system: MOLT-4
OVCAR-8 = system: OVCAR-8
SF-268 = system: SF-268
SF-295 = system: SF-295
SF-539 = system: SF-539
SK-MEL-28 = system: SK-MEL-28
SK-OV-3 = system: SK-OV-3
SN12C = system: SN12C
SW-620 = system: SW-620
U-251 = system: U-251
UO-31 = system: UO-31
COLO 205 = system: COLO 205
Malme-3M = system: Malme-3M

Measured: GI50

C[N+](C)=c1nc(N2CCOCC2)ss1
inactive: HCT-116 > 100 µM | HL-60 > 100 µM | HOP-62 > 100 µM | HOP-92 > 100 µM | IGROV-1 > 100 µM | M14 > 100 µM | MOLT-4 > 100 µM | OVCAR-8 > 100 µM | SF-268 76.6 µM | SF-295 78.2 µM | SF-539 > 100 µM | SK-MEL-28 > 100 µM | SK-OV-3 > 100 µM | SN12C > 100 µM | SW-620 > 100 µM | U-251 > 100 µM | UO-31 > 100 µM

CC(C)CCc1n[nH]c(=O)n1/N=C\c1ccccc1
inactive: COLO 205 > 100 µM | HCT-116 > 100 µM | HOP-62 > 100 µM | HOP-92 > 100 µM | IGROV-1 > 100 µM | M14 > 100 µM | MOLT-4 67.8 µM | Malme-3M > 100 µM | OVCAR-8 > 100 µM | SF-268 > 100 µM | SF-295 > 100 µM | SF-539 > 100 µM | SK-MEL-28 > 100 µM | SK-OV-3 > 100 µM | SN12C > 100 µM | SW-620 > 100 µM | U-251 > 100 µM | UO-31 26.4 µM

S=C(N/N=C\C=N/NC(=S)N1CCCCCC1)N1CCCCCC1
inactive: COLO 205 15.9 µM | HCT-116 7.73 µM | HOP-62 9.12 µM | HOP-92 59 µM | IGROV-1 26 µM | M14 18.1 µM | MOLT-4 7.1 µM | Malme-3M 22.2 µM | OVCAR-8 4.65 µM | SF-268 10.5 µM | SF-295 7.73 µM | SF-539 64.9 µM | SK-MEL-28 > 100 µM | SK-OV-3 25.5 µM | SN12C > 100 µM | SW-620 6.78 µM | U-251 5.21 µM | UO-31 8.22 µM

CC1(C)OC(=O)N(c2ccccc2)C12C=Cc1cc([N+](=O)[O-])ccc1O2 (stereo not given)
inactive: COLO 205 45.3 µM | HCT-116 33.3 µM | HL-60 20.1 µM | HOP-62 32.1 µM | HOP-92 20.2 µM | IGROV-1 32.7 µM | M14 11 µM | MOLT-4 21.7 µM | OVCAR-8 51.6 µM | SF-268 51.1 µM | SF-295 37.5 µM | SK-MEL-28 83.8 µM | SK-OV-3 28.9 µM | SN12C 56.5 µM | SW-620 65.6 µM | U-251 35.8 µM | UO-31 25.1 µM
